Inhibition data for 80 compounds are collected here from ChEMBL document CHEMBL3603819, “Targeting zoonotic viruses: Structure-based inhibition of the 3C-like protease from bat coronavirus HKU4--The likely reservoir host to the human coronavirus that causes Middle East Respiratory Syndrome (MERS)” (Bioorg Med Chem, 2015).

In the assay the test system is Tylonycteris bat coronavirus HKU4. The settings on record: at 100 µM.

Take `Cn1cnc(C(=O)N(c2ccc(C(C)(C)C)cc2)C(C(=O)NC(C)(C)C)c2cccnc2)c1` (stereo not given): the inhibition is 60%. Next, `CC(C)(C)C(=O)Nc1ccc(N(Cc2ccsc2)C(=O)Cn2nnc3ccccc32)cc1`: 67%; `CC(C)(C)NC(=O)C(c1cccnc1)N(C(=O)c1ccco1)c1ccc(F)cc1` (stereo not given): 41%. Next, `CCC(=O)Nc1ccc(N(Cc2ccsc2)C(=O)Cn2nnc3ccccc32)cc1`: 92%; `CC(C)(C)NC(=O)C(c1cccnc1)N(C(=O)c1ccc(Cl)cc1)c1ccc(C(C)(C)C)cc1` (stereo not given): 27%; `CCC(C)Oc1ccc(N(C(=O)c2ccco2)C(C(=O)NC(C)(C)C)c2cccnc2)cc1` (stereo not given): 20%. Next, `CC(C)C(=O)Nc1ccc(N(Cc2ccsc2)C(=O)Cn2nnc3ccccc32)cc1`: 92%; `CC(C)(C)NC(=O)C(c1cccnc1)N(C(=O)c1ccc(F)cc1)c1ccc(C(C)(C)C)cc1` (stereo not given): 21%; `CC(C)(C)NC(=O)C(c1cccnc1)N(C(=O)c1ccco1)c1ccc(OC(F)F)cc1` (stereo not given): 31%. Compound `CC(C)(C)NC(=O)C(c1cccnc1)N(C(=O)c1ncco1)c1ccc(C(C)(C)C)cc1` (stereo not given) came in with an inhibition of 30%. Take `CC(C)c1ccc(N(C(=O)c2ccc(C(F)(F)F)nc2)C(C(=O)NC(C)(C)C)c2cccnc2)cc1` (stereo not given): the inhibition was 18%. Compound `Cc1ccoc1C(=O)N(c1ccc(C(C)C)cc1)C(C(=O)NC(C)(C)C)c1cccnc1` (stereo not given) gave an inhibition of 36%. Next, `COCC(=O)N(c1ccc(C(C)C)cc1)C(C(=O)NC(C)(C)C)c1cccnc1` (stereo not given): 23%. As to `CC(C)(C)NC(=O)C(c1ccsc1)N(C(=O)Cc1c[nH]c2ccccc12)c1ccc(C(C)(C)C)cc1` (stereo not given), the inhibition stood at 31%. Then `COc1cccc(C(=O)N(c2ccc(C(C)(C)C)cc2)C(C(=O)NC(C)(C)C)c2cccnc2)c1` (stereo not given), with 17%. `CNc1ccc(N(Cc2ccsc2)C(=O)Cn2nnc3ccccc32)cc1` displayed an inhibition of 91%. For `CC(C)(C)NC(=O)C(c1cccnc1)N(C(=O)c1ccc(C#N)cc1)C1CC1` (stereo not given), the inhibition was 23%. The compound `Cc1nccn1CC(=O)N(c1ccc(C(C)(C)C)cc1)C(C(=O)NC(C)(C)C)c1ccsc1` (stereo not given) returned an inhibition of 11%. Then `CC(C)(C)NC(=O)C(c1ccncc1)N(C(=O)c1ccco1)c1ccc(C(C)(C)C)cc1` (stereo not given), with 28%. Next, `CC(C)(C)NC(=O)C(c1ccsc1)N(C(=O)Cc1cccc2ccccc12)c1ccc(OCF)cc1` (stereo not given): 17%; `CC(C)(C)NC(=O)C(c1cccnc1)N(C(=O)c1ccncc1)c1ccc(C(C)(C)C)cc1` (stereo not given): 13%; `COc1ccc(C(=O)N(c2ccc(C(C)(C)C)cc2)C(C(=O)NC(C)(C)C)c2cccnc2)cc1` (stereo not given): 16%. Next, `CC(C)c1ccc(N(C(=O)Cc2c[nH]c3ccccc23)C(C(=O)NC(C)(C)C)c2ccsc2)cc1` (stereo not given): 25%. `CC(C)(C)NC(=O)C(c1ccsc1)N(C(=O)c1ccco1)C1CC1` (stereo not given): the inhibition was determined as 18%.

Consider `CC(C)(C)NC(=O)C(c1cccnc1)N(C(=O)c1ccco1)C12CC3CC(CC(C3)C1)C2` (stereo not given), for which the inhibition amounted to 18%. `CC(C)(C)NC(=O)C(c1cccnc1)N(C(=O)c1cccc2c1CCCC2)c1ccc(C(C)(C)C)cc1` (stereo not given) returned an inhibition of 21%.

In turn, `CC(C)(C)NC(=O)C(c1cccnc1)N(C(=O)c1ccccc1O)c1ccc(C(C)(C)C)cc1` (stereo not given) returned an inhibition of 11%.

Regarding `COCCC(=O)Nc1ccc(N(Cc2ccsc2)C(=O)Cn2nnc3ccccc32)cc1`, the inhibition is 94%. `Cc1noc(C)c1-c1ccc(N(C(=O)c2ccco2)C(C(=O)NC(C)(C)C)c2cccnc2)cc1` (stereo not given) showed an inhibition of 28%. `CC(C)(C)NC(=O)C(c1ccsc1)N(C(=O)Cc1cccnc1)c1ccc(C(C)(C)C)cc1` (stereo not given) yielded an inhibition of 23%. Next, `COc1ncccc1-c1ccc(N(Cc2ccsc2)C(=O)Cn2nnc3ccccc32)cc1`: 90%; `O=C(Cn1nnc2ccccc21)N(Cc1ccsc1)c1ccc(NCc2ccccc2)cc1`: 64%; `CC(C)(C)NC(=O)C(c1ccsc1)N(C(=O)c1ccc(C(F)(F)F)nc1)c1ccc(C(C)(C)C)cc1` (stereo not given): 17%.

Regarding `Cc1nc2ccccc2n1CC(=O)N(c1ccc(C(C)(C)C)cc1)C(C(=O)NC(C)(C)C)c1ccsc1` (stereo not given), the inhibition was determined as 19%.

Turning to `CC(C)(C)NC(=O)C(c1ccsc1)N(C(=O)c1cccc2c1CCCC2)C1CC1` (stereo not given), the inhibition worked out at 14%. `CC(C)(C)NC(=O)C(c1ccsc1)N(C(=O)Cn1cnc2ccccc21)c1ccc(N)cc1` (stereo not given) registered an inhibition of 18%. Then `CC(C)(C)NC(=O)C(c1cccnc1)N(C(=O)c1ccco1)c1ccc(Cc2ccccc2)cc1` (stereo not given), with 8%. Take `CC(C)(C)NC(=O)C(c1cccnc1)N(C(=O)c1cnccn1)c1ccc(C(C)(C)C)cc1` (stereo not given): the inhibition came to 41%. Next, `CC(C)(C)NC(=O)C(c1ccsc1)N(C(=O)c1ccco1)c1ccc(OC(F)F)cc1` (stereo not given): 13%; `CC(C)(C)NC(=O)C(c1cccnc1)N(C(=O)c1ccco1)c1ccc(-c2c(F)cccc2F)cc1` (stereo not given): 23%; `CC(C)(C)NC(=O)C(c1ccsc1)N(C(=O)c1ccc(C#N)cc1)C1CC1` (stereo not given): 20%. Take `CC(C)(C)NC(=O)C(c1cccc(F)c1)N(C(=O)Cn1nnc2ccccc21)C12CC3CC(CC(C3)C1)C2` (stereo not given): the inhibition turned out to be 14%. With `CC(C)(C)NC(=O)C(c1cccnc1)N(C(=O)Cc1cccc2ccccc12)c1ccc(F)cc1` (stereo not given), the inhibition is 22%. For the compound `COc1ncc(-c2ccc(N(Cc3ccsc3)C(=O)Cn3nnc4ccccc43)cc2)cn1`, the inhibition worked out at 83%. Then `CC(=O)Nc1ccc(N(C(=O)Cn2cnc3ccccc32)C(C(=O)NC(C)(C)C)c2ccsc2)cc1` (stereo not given), with 14%; and `CC(C)(C)NC(=O)C(c1cccnc1)N(C(=O)c1ccc(C(F)(F)F)nc1)c1ccc(OCF)cc1` (stereo not given), with 15%; and `CC(C)(C)NC(=O)C(c1cccnc1)N(C(=O)Cc1cnc[nH]1)c1ccc(C(C)(C)C)cc1` (stereo not given), with 24%. `CC(C)(C)NC(=O)C(c1cccnc1)N(C(=O)c1ccco1)c1ccc(-c2ccc[nH]2)cc1` (stereo not given): the inhibition is 31%. Regarding `CC(C)(C)NC(=O)C(c1cccnc1)N(C(=O)c1ccco1)c1ccc(-c2ccc(F)cc2F)cc1` (stereo not given), the inhibition was found to be 16%. In the case of `CC(C)C(=O)Nc1ccc(N(Cc2ccsc2)C(=O)Cn2cc([Si](C)(C)C)nn2)cc1`, the inhibition came to 15%. Then `CC(C)c1ccc(N(C(=O)c2cccc3c2CCCC3)C(C(=O)NC(C)(C)C)c2ccsc2)cc1` (stereo not given), with 20%; and `O=C(Nc1ccc(N(C(=O)Cn2nnc3ccccc32)C(C(=O)NCc2ccccc2)c2cccc(F)c2)cc1)C1CC1` (stereo not given), with 71%. For `CC(C)(C)NC(=O)C(c1ccsc1)N(C(=O)c1ccco1)c1ccc(F)cc1` (stereo not given), the inhibition was found to be 16%. Then `CC(C)(C)NC(=O)C(c1ccsc1)N(C(=O)Cn1cnc2ccccc21)c1ccc(C(C)(C)C)cc1` (stereo not given), with 15%; and `CC(C)(C)NC(=O)C(c1ccsc1)N(C(=O)c1n[nH]c2ccccc12)c1ccc(C(C)(C)C)cc1` (stereo not given), with 16%. Next, `CC(C)(C)NC(=O)C(c1cccnc1)N(C(=O)c1n[nH]c2ccccc12)c1ccc(F)cc1` (stereo not given): 14%. Then `CC(C)(C)NC(=O)C(c1cccnc1)N(C(=O)c1cccc2c1CCCC2)C1CC1` (stereo not given), with 18%; and `CC(C)COC(=O)Nc1ccc(N(Cc2ccsc2)C(=O)Cn2nnc3ccccc32)cc1`, with 75%.

The compound `CC(C)(C)NC(=O)C(c1cccnc1)N(C(=O)Cc1cccnc1)c1ccc(OCF)cc1` (stereo not given) gave an inhibition of 18%.

In turn, `CC(C)c1ccc(N(C(=O)c2cccc3c2CCCC3)C(C(=O)NC(C)(C)C)c2cccnc2)cc1` (stereo not given) gave an inhibition of 25%. Then `CC(C)(C)NC(=O)C(c1ccc(C(C)(C)C)cc1)N(C(=O)c1ccco1)c1ccc(C(C)(C)C)cc1` (stereo not given), with 26%; and `CC(C)c1ccc(N(C(=O)c2ccc(C(F)(F)F)nc2)C(C(=O)NC(C)(C)C)c2ccsc2)cc1` (stereo not given), with 15%. Next, `CC(C)(C)NC(=O)C(c1cccnc1)N(C(=O)c1ccc(C#N)cc1)c1ccc(F)cc1` (stereo not given): 53%; `CC(C)(C)NC(=O)C(c1cccnc1)N(C(=O)c1ncc[nH]1)c1ccc(C(C)(C)C)cc1` (stereo not given): 22%.

`CCC(=O)Nc1ccc(N(C(=O)Cn2c(C)nc3ccccc32)C(C(=O)NC(C)(C)C)c2ccsc2)cc1` (stereo not given) had an inhibition of 8%.

As to `COCC(=O)Nc1ccc(N(Cc2ccsc2)C(=O)Cn2nnc3ccccc32)cc1`, the inhibition is 91%. Then `CC(C)(C)NC(=O)[C@H](c1cccnc1)N(C(=O)c1c[nH]cn1)c1ccc(C(C)(C)C)cc1`, with 44%. In the case of `CC(C)(C)NC(=O)C(c1cccnc1)N(C(=O)c1ccc(C(F)(F)F)nc1)c1ccc(C(C)(C)C)cc1` (stereo not given), the inhibition was found to be 15%.

`COc1cccc(Oc2ccc(N(C(=O)c3ccco3)C(C(=O)NC(C)(C)C)c3cccnc3)cc2)c1` (stereo not given): the inhibition turned out to be 18%.

Take `CC(C)C(=O)Nc1ccc(N(Cc2ccsc2)C(=O)Cn2ccnn2)cc1`: the inhibition was found to be 63%. `CC(C)(C)NC(=O)C(c1cccnc1)N(C(=O)Cc1cccc2ccccc12)C1CC1` (stereo not given) showed an inhibition of 11%. The compound `CC(C)(C)NC(=O)C(c1ccsc1)N(C(=O)Cc1c[nH]c2ccccc12)c1ccc(F)cc1` (stereo not given) returned an inhibition of 22%. `CC(C)(C)NC(=O)C(c1cccnc1)N(C(=O)c1ccc(C(F)(F)F)cn1)C1CC1` (stereo not given) had an inhibition of 42%. Then `CC(C)(C)NC(=O)C(c1cccnc1)N(C(=O)c1ccco1)c1ccc(-c2ccccc2)cc1` (stereo not given), with 22%; and `CC(C)(C)NC(=O)C(c1ccsc1)N(C(=O)Cc1cccc2ccccc12)c1ccc(C(C)(C)C)cc1` (stereo not given), with 15%; and `CC(C)c1ccc(N(C(=O)Cc2cccc3ccccc23)C(C(=O)NC(C)(C)C)c2ccsc2)cc1` (stereo not given), with 13%.

`CC(C)Oc1ccc(N(C(=O)c2ccco2)C(C(=O)NC(C)(C)C)c2cccnc2)cc1` (stereo not given) had an inhibition of 13%. Compound `CC(C)(C)NC(=O)C(c1ccsc1)N(C(=O)c1n[nH]c2ccccc12)c1ccc(OC(F)F)cc1` (stereo not given) returned an inhibition of 17%. Next, `CC(C)(C)NC(=O)C(c1ccsc1)N(C(=O)Cn1cnc2ccccc21)c1ccc(NS(C)(=O)=O)cc1` (stereo not given): 28%. `CC(C)(C)NC(=O)C(c1cccnc1)N(C(=O)CC(F)(F)F)c1ccc(C(C)(C)C)cc1` (stereo not given) gave an inhibition of 13%.

Broadly, the inhibition is the percentage by which the read-out fell short of the control.
